Our source for the ΔTm values is ChEMBL document CHEMBL5724796, “Tm Shift (DSF) assay results for EUbOPEN Chemogenomics Library” (2024).

Non-standard residues stand in square brackets, D forms with d. Residues, ends and D or L forms follow the SMILES beside them. *: point of attachment. Tyr(3-Cl) = N[C@@H](Cc1ccc(O)c(Cl)c1)C(=O)O; Benzoyl(4-OPh) = O=C(c1ccc(Oc2ccccc2)cc1)*; Benzoyl(3,5-Cl2) = O=C(c1cc(Cl)cc(Cl)c1)*; Lys(Et2) = CCN(CC)CCCC[C@H](N)C(=O)O; d(aIle) = CC[C@H](C)[C@@H](N)C(=O)O; Gly(cPent) = N[C@H](C(=O)O)C1CCCC1; Cbz = O=C(OCc1ccccc1)*; NH(propargyl) = C#CCN*; CH2F = FC*

The target of one assay is T1, Peregrin (Homo sapiens) (UniProt P55201).
T1 sequence (whole entry): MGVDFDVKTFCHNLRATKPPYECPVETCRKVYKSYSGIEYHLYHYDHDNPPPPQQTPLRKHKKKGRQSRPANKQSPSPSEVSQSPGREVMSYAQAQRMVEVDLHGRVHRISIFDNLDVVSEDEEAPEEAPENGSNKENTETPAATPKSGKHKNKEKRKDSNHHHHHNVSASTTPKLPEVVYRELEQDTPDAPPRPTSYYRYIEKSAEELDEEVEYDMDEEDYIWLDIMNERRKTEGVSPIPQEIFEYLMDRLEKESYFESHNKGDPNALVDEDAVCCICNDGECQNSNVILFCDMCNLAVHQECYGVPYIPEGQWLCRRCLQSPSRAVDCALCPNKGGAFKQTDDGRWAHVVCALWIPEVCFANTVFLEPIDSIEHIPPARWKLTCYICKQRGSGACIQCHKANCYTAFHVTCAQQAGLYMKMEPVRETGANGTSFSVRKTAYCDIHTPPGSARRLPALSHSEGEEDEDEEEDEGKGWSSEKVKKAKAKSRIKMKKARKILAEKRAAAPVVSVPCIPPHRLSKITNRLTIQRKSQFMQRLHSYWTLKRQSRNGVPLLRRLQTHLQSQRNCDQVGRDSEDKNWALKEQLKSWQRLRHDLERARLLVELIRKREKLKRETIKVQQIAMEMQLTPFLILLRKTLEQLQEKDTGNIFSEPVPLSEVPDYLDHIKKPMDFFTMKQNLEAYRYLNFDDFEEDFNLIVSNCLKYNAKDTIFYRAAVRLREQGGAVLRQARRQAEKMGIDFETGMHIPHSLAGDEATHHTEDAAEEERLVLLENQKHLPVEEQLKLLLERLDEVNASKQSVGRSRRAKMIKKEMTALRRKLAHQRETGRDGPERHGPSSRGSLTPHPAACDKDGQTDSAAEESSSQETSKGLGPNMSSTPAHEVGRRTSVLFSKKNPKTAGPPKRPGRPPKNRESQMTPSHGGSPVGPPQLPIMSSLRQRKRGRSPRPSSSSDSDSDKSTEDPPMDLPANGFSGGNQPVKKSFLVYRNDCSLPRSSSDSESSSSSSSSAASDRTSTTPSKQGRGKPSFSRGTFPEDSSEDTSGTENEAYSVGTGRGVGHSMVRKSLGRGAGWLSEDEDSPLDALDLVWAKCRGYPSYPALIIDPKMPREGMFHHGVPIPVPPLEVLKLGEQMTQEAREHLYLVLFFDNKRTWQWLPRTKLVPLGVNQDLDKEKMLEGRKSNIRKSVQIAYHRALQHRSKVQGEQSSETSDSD
As to conditions: Compound concentration 20.0 uM.

Assay [1] has as its target Fibroblast growth factor receptor 2 (Homo sapiens) (UniProt P21802). Particulars: Compound concentration 20.0 uM.
Description: Thermal Shift Assay. Domain: start/stop: T457-E768

Chain of Fibroblast growth factor receptor 2 (Homo sapiens) (P21802 22-821 limits assumed): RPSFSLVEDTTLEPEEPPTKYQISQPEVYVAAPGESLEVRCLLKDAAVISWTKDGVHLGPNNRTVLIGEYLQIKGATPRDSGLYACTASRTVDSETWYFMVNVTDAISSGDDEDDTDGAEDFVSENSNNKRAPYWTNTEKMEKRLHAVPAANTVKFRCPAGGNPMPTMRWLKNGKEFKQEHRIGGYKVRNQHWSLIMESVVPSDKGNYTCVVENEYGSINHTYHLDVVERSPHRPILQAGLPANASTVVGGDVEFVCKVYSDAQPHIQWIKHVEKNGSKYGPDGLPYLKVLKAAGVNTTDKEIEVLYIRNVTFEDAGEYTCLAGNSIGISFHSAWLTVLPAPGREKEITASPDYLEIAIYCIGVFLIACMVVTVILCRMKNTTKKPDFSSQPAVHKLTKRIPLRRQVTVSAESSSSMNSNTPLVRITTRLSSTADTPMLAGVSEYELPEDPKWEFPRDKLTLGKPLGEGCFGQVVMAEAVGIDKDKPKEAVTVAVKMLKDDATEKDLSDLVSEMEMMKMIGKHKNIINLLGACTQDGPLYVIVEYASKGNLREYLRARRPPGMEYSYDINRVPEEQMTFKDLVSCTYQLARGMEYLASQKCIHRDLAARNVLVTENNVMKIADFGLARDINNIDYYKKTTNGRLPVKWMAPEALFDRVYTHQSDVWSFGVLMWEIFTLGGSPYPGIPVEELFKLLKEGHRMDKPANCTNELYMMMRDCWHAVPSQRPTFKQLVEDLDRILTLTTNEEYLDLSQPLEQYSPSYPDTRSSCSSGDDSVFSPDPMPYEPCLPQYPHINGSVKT

With `CCN1C(C)(C)CC(Oc2ccc(C(=O)Nc3ccc(NC(=O)Nc4cc(C(C)(C)C)on4)cc3)nc2)CC1(C)C`, the ΔTm on Peregrin (Homo sapiens) was -1.03 °C; in assay [1] it was -2 °C. Taken in the same sequence, the figures for `O=C(NO)C(c1ccc(-c2ncc(C(F)(F)F)cn2)cc1)c1ccccc1F` (stereo unspecified) were -0.82 °C and -0.81 °C.

On to `COc1ccc(C2C(C#N)=C(N)OC3=C2C(=O)CC(c2cccc4ccccc24)C3)cc1` (stereo unspecified), for which the results for the ΔTm (at Peregrin (Homo sapiens); in assay [1]) were 0.11 °C and -0.92 °C, respectively. In the case of `C[C@H]1CO[C@@H]2Cn3cc(C(=O)NCc4ccc(F)cc4F)c(=O)c(O)c3C(=O)N12`, the results for the thermal shift (ΔTm) (on Peregrin (Homo sapiens); in assay [1]) were 2.22 °C and 0.45 °C, respectively.

On to `Nc1ccccc1NC(=O)c1ccc(CNc2nccc(-c3cccnc3)n2)cc1`, for which the ΔTm at Peregrin (Homo sapiens) was -0.72 °C; in assay [1], 1.02 °C. Take `COc1ccccc1S(=O)(=O)Nc1ccc2c(c1)CN(C)C(=O)N2`: the ΔTm on Peregrin (Homo sapiens) was 1.9 °C; in assay [1], -0.59 °C. Taken in the same sequence, the figures for `Nc1ccccc1NC(=O)CCCCCC(=O)Nc1ccccc1` were -1.41 °C and 0.58 °C.

Regarding `CC(=O)O[C@]1(C(C)=O)CC[C@H]2[C@@H]3CCC4=CC(=O)CCC4=C3[C@@H](c3ccc(N(C)C)cc3)C[C@@]21C`, the thermal shift (ΔTm) was -2.65 °C on Peregrin (Homo sapiens) and -0.06 °C in assay [1]. Taken in the same sequence, the figures for `N[C@@H](CC(=O)N1CCN(C(c2ccc(F)cc2)c2ccc(F)cc2)CC1)C(=O)N1Cc2ccccc2C1` were -1.34 °C and 0 °C. Regarding `CC(=O)N[C@H](C(=O)N[C@@H](CC(=O)O)C(=O)N[C@H](C(=O)N[C@@H](C)C(=O)N[C@H](C=O)CC(=O)O)C(C)C)C(C)C` (Ac-VDVAD-aldehyde), the thermal shift (ΔTm) was -0.92 °C at Peregrin (Homo sapiens) and -0.83 °C in assay [1]. As for `O=C1c2ccccc2C(=O)c2oc(-c3ccc(F)cc3)nc21`, the shift in melting temperature (ΔTm) at Peregrin (Homo sapiens) is -0.98 °C; in assay [1], 0.19 °C.

For `O=C1Nc2ccccc2C2(CCN(CC(Cc3ccccc3)Nc3nc4ccc(F)cc4s3)CC2)N1` (stereo unspecified), the thermal shift (ΔTm) on Peregrin (Homo sapiens) is 0.27 °C; in assay [1], 2.21 °C. In the same order, the values of `C#CCNC(=O)[C@H](CO)NC(=O)[C@H](CCCCN(CC)CC)NC(=O)[C@H](NC(=O)[C@@H](NC(=O)c1ccc(Oc2ccccc2)cc1)C1CCCC1)[C@@H](C)CC` ({Benzoyl(4-OPh)}-[Gly(cPent)][d(aIle)][Lys(Et2)]S-{NH(propargyl)}) are -0.64 °C and -1.33 °C.

`COc1ncc(C)c(-c2ccc3c(c2)[nH]c(=O)c2cnn([C@H]4CCOC4)c23)c1C`: the ΔTm was 0.86 °C on Peregrin (Homo sapiens) and -0.58 °C in assay [1]. Taken in the same sequence, the figures for `CC(C)(C)NS(=O)(=O)c1cccc2c(NC(=O)[C@H](Cc3ccccc3)NC(=O)C3CCCCC3)cccc12` were 0.28 °C and 0.01 °C.

On to `O=C(Nc1c(Cl)cncc1Cl)c1ccc(OC(F)F)c(OCC2CC2)c1`, for which the ΔTm came out at 0.52 °C on Peregrin (Homo sapiens) and 0.95 °C in assay [1]. In the same order, the values of `C[C@H]1CCCN1Cc1nc2cc(NC(=O)c3ccc4c(cnn4C)c3)ccc2[nH]1` are -1.47 °C and 0.51 °C. Taken in the same sequence, the figures for `COCc1nc2cnc3cc(-c4c(C)noc4C)c(OC[C@H]4CCNC4)cc3c2n1[C@H](C)c1ccccc1` were 0.65 °C and 0.01 °C. Taken in the same sequence, the figures for `CC(C)c1c(-c2ccccc2)[nH]c2c(C#N)cnn2c1=O` were 1.31 °C and -0.06 °C. For `CCCc1nc(C)c2c(C)nc3ccc(OC)nc3n12`, the ΔTm was -0.07 °C on Peregrin (Homo sapiens) and -0.53 °C in assay [1]. In the same order, the values of `Cc1cc(OCc2nnc(SC3CCCC3)n2-c2cccnc2)ccc1-c1ccc(S(C)(=O)=O)cc1` are -5.44 °C and -3.4 °C. Taken in the same sequence, the figures for `NS(=O)(=O)OC[C@H]1C[C@@H](Nc2ccnc3cc(-c4cccc(SC(F)(F)F)c4)nn23)[C@H](O)[C@@H]1O` were 3.28 °C and -0.4 °C.

`N[C@@H](CCNCc1ccc(Cl)cc1)C(=O)N1CCCCC1`: the figures for the shift in melting temperature (ΔTm) (at Peregrin (Homo sapiens); in assay [1]) were 0.85 °C and -0.56 °C, respectively. In the same order, the values of `Cc1nn2c(nc(O)c3cccnc32)c1C#N` are 0.03 °C and -0.24 °C.

Regarding `O=C(c1cc(Cc2n[nH]c(=O)c3ccccc23)ccc1F)N1CCN(C(=O)C2CC2)CC1`, the ΔTm at Peregrin (Homo sapiens) was 0.96 °C; in assay [1], -0.16 °C.

For `CCC(=O)N1CCOc2c(cc(-c3cc(OC)cc(OC)c3)cc2C(=O)N[C@H]2CCCN(C)C2)C1`, the ΔTm is -0.83 °C at Peregrin (Homo sapiens) and 0.29 °C in assay [1]. Taken in the same sequence, the figures for `CCCCCCNC(=O)n1cc(F)c(=O)[nH]c1=O` were 0.95 °C and 0.03 °C. For `COC[C@H](NC(=O)c1ccn(S(C)(=O)=O)c1)C(=O)Nc1nc(-c2cccc(-c3ccn(C)n3)c2)cs1`, the ΔTm on Peregrin (Homo sapiens) was -0.52 °C; in assay [1], 0.09 °C. In the same order, the values of `O=C(NCCCn1ccnc1)c1cc2nc(-c3ccccc3)cc(-c3ccccc3)n2n1` are -1.26 °C and 0.5 °C.

In the case of `Cc1cc(N2C[C@@H](C)N[C@@H](C)C2)ncc1-c1ccc(-c2nc3c(ccn3C)c(=O)[nH]2)cc1`, the ΔTm at Peregrin (Homo sapiens) came out at 2.61 °C; in assay [1], 0.8 °C.

Turning to `COc1cc2c(cc1-c1c(C)noc1C)[nH]c1nc(C)nc(-c3ccnc4ccccc34)c12`, the shift in melting temperature (ΔTm) on Peregrin (Homo sapiens) is 1.04 °C; in assay [1], -1.02 °C.

Regarding `CSc1cccc(Nc2ncc3cc(-c4c(Cl)cccc4Cl)c(=O)n(C)c3n2)c1`, the shift in melting temperature (ΔTm) on Peregrin (Homo sapiens) is -0.8 °C; in assay [1] it was -0.92 °C. Taken in the same sequence, the figures for `COC(=O)CC(NC(=O)C(C)NC(=O)C(NC(=O)C(CC(=O)OC)NC(=O)C(NC(=O)OCc1ccccc1)C(C)C)C(C)C)C(=O)CF` (stereo unspecified) (Cbz-VD(OMe)VAD(OMe)-CH2F; configuration not given here) were 2.28 °C and -0.48 °C. Taken in the same sequence, the figures for `C#CCNC(=O)[C@H](CO)NC(=O)[C@H](CCCCN(CC)CC)NC(=O)[C@@H](NC(=O)[C@@H](NC(=O)[C@H](Cc1ccc(O)c(Cl)c1)NC(=O)c1cc(Cl)cc(Cl)c1)C1CCCC1)[C@@H](C)CC` ({Benzoyl(3,5-Cl2)}-[Tyr(3-Cl)][Gly(cPent)]I[Lys(Et2)]S-{NH(propargyl)}) were 1.15 °C and -1.31 °C. Taken in the same sequence, the figures for `NC(=O)C(CCCN=C(N)CCl)NC(=O)c1ccccc1` (stereo unspecified) were 1.58 °C and -0.58 °C. In the case of `Cn1cc(C(=O)Nc2ccc([C@@H]3C[C@H]3NCC3CC3)cc2)cn1`, the ΔTm was 0.16 °C on Peregrin (Homo sapiens) and -0.53 °C in assay [1].

As for `O=C(O)CCNC(=S)NCCCC[C@H](NS(=O)(=O)c1cccc(F)c1)C(=O)N[C@@H](Cc1c[nH]c2ccccc12)C(=O)NC1CCC1`, the ΔTm on Peregrin (Homo sapiens) was 1.86 °C; in assay [1] it was -0.15 °C. Consider `Oc1ccc(-c2c(-c3ccccc3)nn3c(C(F)(F)F)cc(C(F)(F)F)nc23)cc1`, for which the ΔTm was -1.38 °C on Peregrin (Homo sapiens) and 1.15 °C in assay [1]. In the same order, the values of `CCN(C(=O)c1cc(F)ccc1Oc1cncnc1N1CC2(CCN(C[C@H]3CC[C@H](NS(=O)(=O)CC)CC3)CC2)C1)C(C)C` are 0.45 °C and 0.21 °C. In the same order, the values of `CN1CCc2c(n(Cc3ccc(C(=O)NO)cc3)c3ccccc23)C1` are -0.68 °C and -3.78 °C. Taken in the same sequence, the figures for `CCCCCCCCCCCCCC(=S)NCCCC[C@H](NC(=O)OCc1ccccc1)C(=O)Nc1ccccc1` were 3.33 °C and 0.84 °C. In the case of `CN(C)CC(c1ccc(O)cc1)C1(O)CCCCC1` (stereo unspecified), the thermal shift (ΔTm) at Peregrin (Homo sapiens) was -1.07 °C; in assay [1], -0.09 °C.

`CC(C)N(CCCNC(=O)Nc1ccc(C(C)(C)C)cc1)C[C@H]1O[C@@H](n2ccc3c(N)ncnc32)[C@H](O)[C@@H]1O`: the ΔTm on Peregrin (Homo sapiens) is -2.69 °C; in assay [1] it was 0.6 °C.

Take `Cc1cc(C)c(CNC(=O)c2cc(Cl)c3c(c2C)O[C@@](C)([C@H]2CC[C@H](N(C)C)CC2)O3)c(=O)[nH]1`: the results for the thermal shift (ΔTm) (on Peregrin (Homo sapiens); in assay [1]) were -0.71 °C and -1.83 °C, respectively. In the same order, the values of `CN(C(=O)CCCOc1ccc2[nH]c(=O)ccc2c1)C1CCCCC1` are 1.74 °C and -0.58 °C. For the molecule `O=C(Nc1cc(C(F)F)ns1)Nc1cc(F)ncc1CO`, the figures for the thermal shift (ΔTm) (on Peregrin (Homo sapiens); in assay [1]) were 3.9 °C and -0.3 °C, respectively. As for `COc1ccccc1C(=O)Nc1cc2c(cc1N1CCNC[C@H]1C)n(C)c(=O)n2C`, the ΔTm in assay [1] came to 0.68 °C. Same read-out and setting: for `COc1ccccc1C(=O)Nc1cc2c(cc1N1CCCCC1)n(C)c(=O)n2C` the value was 0.52 °C. For the molecule `CN1CCN(c2ccc3nc(-c4c(N)c5c(F)cccc5[nH]c4=O)[nH]c3c2)CC1`, the thermal shift (ΔTm) on Peregrin (Homo sapiens) was -0.73 °C. Consider `COc1cc(Nc2ncc(F)c(Nc3ccc4c(n3)NC(=O)C(C)(C)O4)n2)cc(OC)c1OC`, for which, at Peregrin (Homo sapiens), the shift in melting temperature (ΔTm) is -0.89 °C.
